A short description of experiment [1]: DPPH radical scavenging assay. As to conditions: average inhibition, concentration range 0.0245 to 0.268 μM, n = 3. Here is the method: The DPPH (2,2-diphenyl-1-picrylhydrazyl) radical scavenging assay was conducted to evaluate the antioxidant activity of compounds 5–12 following the method outlined by Chong et al. with minor modifications. A 1 mL sample with a concentration range of 0.0245 to 0.268 μM was introduced to a 1 mL methanol solution of DPPH ([…]) and vortexed. Following a 20-min incubation at 25 °C, absorbance was assessed at 527 nm using a UV-vis spectrophotometer, with blank as reference. Ascorbic acid served as a positive control. The negative control consists of a setup without samples (ascorbic acid and synthetic compounds). The percentage of DPPH free radical inhibition was determined using Equation (1) provided below.
% of DPPH radical scavenging activity was calculated using the following equation:(1) AA%=100−[Abs sample−Abs blank100/Abs control] • Equation (1) where: • Abs control = absorbance of the control. • Abs sample = absorbance of the sample.

Experiment [2] concerns differentiated 3T3-L1 adipocytes. The experiment can be described thus: Intracellular ROS production (DCFH-DA, AAPH-stimulated). The experiment is classed as cell-based. As to conditions: 24 h treatment. Here is the method:
Differentiation of 3T3-L1 cells was performed within one week through culturing in MDI medium, which consisted of 0.5 mM 3-isobutyl-1-methylxanthine, 1 μM dexamethasone, and 1 μg/mL insulin, for 48 h in 10% FBS-DMEM. Subsequently, the cells were transferred to fresh 10% FBS and 90% DMEM supplemented with 1 μg/mL insulin.
On day 8 of differentiation, intracellular ROS levels in 3T3 L1 cells were assessed using the oxidation-sensitive fluorogenic probe 2′,7′-dichlorodihydrofluorescein-diacetate (DCFH-DA), following a method established by Forbes-Hernández et al., with minor modification. Post-differentiation, the cells were treated with the respective doses of the compounds for a period of 24 h. Following this, the cells underwent incubation with DCFH-DA (25 μM) at 37 °C for a duration of 30 min in the absence of light. Consequently, the cells were stimulated with 1 mM AAPH as a ROS initiator for a duration of 1 h. The density of light was measured using a spectrofluorometer with an excitation wavelength of 480 nm and an emission wavelength of 530 nm.

The next experiment relates to BSA-glucose. The experiment is described as follows: BSA-glucose antiglycation assay. Set-up: species or system bovine. Conditions: 7 days, 37 °C, pH 7.4, n = 3; read-out: BSA-glucose glycation IC50. The procedure: The BSA-glucose assay is conducted according to the methodology outlined by Mridula et al.. […] The reaction mixture was thoroughly mixed and incubated for 5 min. Following incubation, 0.5 mL of sodium azide was added to each tube. The tubes underwent incubation at 37 °C in the absence of light for a duration of seven days. Aminoguanidine is used as a positive control. Following a seven-day incubation period, the samples were analyzed with the Omega microplate reader (BMG LABTECH, Ortenberg, Germany), measuring fluorescence intensity at an excitation wavelength of 370 nm and an emission wavelength of 440 nm. The experiment was conducted in triplicate.

The target of the next experiment is T1, pancreatic lipase (Sus scrofa, UniProt P00591).
T1 construct: The enzyme source utilized was porcine pancreas powder; from tissue; host or cells: porcine pancreas (powder)
T1 sequence (P00591 1-450): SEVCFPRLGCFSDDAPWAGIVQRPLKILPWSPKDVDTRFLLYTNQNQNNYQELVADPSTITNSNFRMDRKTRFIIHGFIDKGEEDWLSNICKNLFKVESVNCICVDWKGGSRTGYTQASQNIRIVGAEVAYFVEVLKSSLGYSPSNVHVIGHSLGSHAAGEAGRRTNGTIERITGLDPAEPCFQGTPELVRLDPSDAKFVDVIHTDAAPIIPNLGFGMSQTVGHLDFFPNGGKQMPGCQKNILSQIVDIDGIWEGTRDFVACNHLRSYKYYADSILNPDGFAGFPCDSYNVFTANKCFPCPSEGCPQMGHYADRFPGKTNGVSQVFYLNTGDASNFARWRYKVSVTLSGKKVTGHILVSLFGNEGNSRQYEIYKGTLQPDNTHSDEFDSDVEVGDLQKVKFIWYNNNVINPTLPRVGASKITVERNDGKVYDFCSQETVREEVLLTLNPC
The experiment can be described thus: In vitro pancreatic lipase inhibition assay. As to conditions: porcine pancreas powder, pNPB substrate, n = 3. The experiment is classed as biochemical. Here is the method:
The pancreatic lipase inhibition assay is conducted following the method outlined by Ajayi et al. (2022) with minor modifications. The enzyme source utilized was porcine pancreas powder at a concentration of 0.1 mg·mL^−1 in Tris–HCl buffer, pH 8.0. In a 96-well plate, 50 μL of phosphate–buffer solution (pH 7.0), 50 μL of pNPB (500 μM), and 50 μL of test samples 5–12 with concentrations ranging from 0.0245 to 0.268 μM were pipetted and mixed thoroughly. Fifty microliters of pancreatic enzyme were added to the resultant mixture and incubated at room temperature for 30 min. The resulting yellow p-nitrophenol was measured spectrophotometrically at 405 nm. Control was conducted concurrently without the addition of a test sample. […] PL inhibition was determined using the following formula: PL inhibition (%) = [(Activity of control − activity of test)/activity of control] × 100. The IC50 is determined utilizing GraphPad 10 software (GraphPad Software, LLC, San Diego, CA, USA).

Experiment [3] can be described thus: Chelating capacity (ferrozine) assay. As to conditions: 0.0245 to 0.268 μM. Here is the method: Chelating capacity assay is conducted following the method outlined by Chong et al. with minor modifications. Samples of 0.1 mL with concentrations ranging from 0.0245 to 0.268 μM were combined with 0.5 mL of a […] and 0.2 mL of a 5 mM ferrozine solution. Then, a 10-min incubation at room temperature, absorbance was recorded at 562 nm using a blank solution in a 96-well plate reader. EDTA served as a positive control. The negative control consists of a sample devoid of any substances, including EDTA and synthetic compounds. The percentage of ferrous chelation was calculated using the Equation (1).

Several values for one entry are separate records, joined by “and”; a condition that tells them apart may be missing. Equal entries are not always repeated. Marks after values point to notes of the source that are not given here.

By IC50 is commonly meant the concentration that gives 50% inhibition. `O=S(=O)(O)CCCN1c2ccccc2Sc2cc3ccccc3nc21` [Compound 5, 3-(quino[3,2-b]benzo[1,4]thiazin-6-yl)propane-1-sulfonic acid] showed a DPPH mean inhibition in experiment [1] of 5.49%. The “% ROS Generation” value in experiment [2] (0.02 μM) is 208.69 ± 13.07% and 208.69 ± 13.07 ^a %; in experiment [2] (0.06 μM), 142.87 ± 15.43 ^b %; in experiment [2] (0.1 μM), 76.83 ± 0.0 ^c %; in experiment [2] (0.2 μM), 39.72 ± 6.30 ^c %; in experiment [2] (0.25 μM), 39.24 ± 0.0 ^c %. Further, the concentration for half-maximal inhibition (IC50) was 0.79 µM in the experiment on BSA-glucose and 1.57 µM at pancreatic lipase.
In experiment [1], `O=S(=O)(O)CCCN1c2ccc(F)cc2Sc2cc3ccccc3nc21` [Compound 6, 3-(9-fluoroquino[3,2-b]benzo[1,4]thiazin-6-yl)propane-1-sulfonic acid] gave a DPPH mean inhibition of 3.45%. The “% ROS Generation” value in experiment [2] (0.02 μM) was 137.15 ± 9.37 ^a %; in experiment [2] (0.06 μM) it was 126.66 ± 2.43 ^a %; in experiment [2] (0.1 μM), 88.31 ± 3.13 ^b %; in experiment [2] (0.2 μM) it was 37.15 ± 9.37% and 69.68 ± 7.12 ^c %; in experiment [2] (0.25 μM), 63.73 ± 1.04% and 63.73 ± 1.04 ^c %. Further, the IC50 in the experiment on BSA-glucose came out at 1.57 µM; at pancreatic lipase, 1.24 µM.
`O=S(=O)(O)CCCCN1c2ccccc2Sc2cc3ccccc3nc21` [Compound 9, 4-(quino[3,2-b]benzo[1,4]thiazin-6-yl)butane-1-sulfonic acid] returned a DPPH mean inhibition in experiment [1] of 2.45%. The “% ROS Generation” value is 169.62 ± 13.81% and 169.62 ± 13.81 ^a % in experiment [2] (0.02 μM); 151.45 ± 25.13 ^ab % in experiment [2] (0.06 μM); 151.54 ± 32.18 ^ab % in experiment [2] (0.1 μM); 61.36 ± 1.58 ^c % in experiment [2] (0.2 μM); 26.38 ± 1.73% and 26.38 ± 1.73 ^c % in experiment [2] (0.25 μM). Also, the IC50 in the experiment with BSA-glucose was 1.09 µM; at pancreatic lipase, 0.67 µM and 0.477 µM.
Turning to `N=C(N)NN` [aminoguanidine, reference compound], in the experiment on BSA-glucose, the IC50 turned out to be 0.31 µM.
For the compound `O=S(=O)(O)CCCN1c2ccc(Cl)cc2Sc2cc3ccccc3nc21` [Compound 7, 3-(9-chloro[3,2-b]benzo[1,4]thiazin-6-yl)propane-1-sulfonic acid], the DPPH mean inhibition in experiment [1] worked out at 8.47%. Also, the “% ROS Generation” value in experiment [2] (0.02 μM) was 143.18 ± 10.65% and 143.18 ± 10.65 ^a %; in experiment [2] (0.06 μM), 113.48 ± 10.27 ^a %; in experiment [2] (0.1 μM) it was 33.27 ± 6.16 ^b %; in experiment [2] (0.2 μM), 15.63 ± 2.74 ^b %; in experiment [2] (0.25 μM), 14.96 ± 1.25% and 14.96 ± 1.25 ^b %. For the same compound, the IC50 in the experiment on BSA-glucose came to 4.13 µM; at pancreatic lipase it was 0.89 µM.
For the compound `O=C(O)CN(CCN(CC(=O)O)CC(=O)O)CC(=O)O` [EDTA], the Chelating activity result in experiment [3] is “increasing inhibitory action with increased concentration”.
`O=S(=O)(O)CCCCN1c2ccc(Cl)cc2Sc2cc3ccccc3nc21` [Compound 11, 4-(9-chloro[3,2-b]benzo[1,4]thiazin-6-yl)butane-1-sulfonic acid] had a DPPH mean inhibition in experiment [1] of 8.47%. Moreover, the “% ROS Generation” value in experiment [2] (0.02 μM) was 104.90 ± 5.3% and 104.90 ± 5.31 ^a %; in experiment [2] (0.06 μM), 35.75 ± 11.03 ^c %; in experiment [2] (0.1 μM) it was 46.64 ± 6.13 ^bc %; in experiment [2] (0.2 μM) it was 75.96 ± 2.21 ^ab %; in experiment [2] (0.25 μM), 57.18 ± 1.66% and 57.18 ± 1.66 ^bc %. For the same compound, the IC50 came out at 1.89 µM in the experiment with BSA-glucose and 0.87 µM on pancreatic lipase.
Take `CSc1ccc2c(c1)Sc1cc3ccccc3nc1N2CCCCS(=O)(=O)O` [Compound 12, 4-(9-methylthio[3,2-b]benzo[1,4]thiazin-6-yl)butane-1-sulfonic acid]: the DPPH mean inhibition in experiment [1] came out at 5.53%. Moreover, the “% ROS Generation” value in experiment [2] (0.02 μM) was 119.82 ± 5.12% and 119.82 ± 5.12 ^a %; in experiment [2] (0.06 μM), 102.85 ± 1.47 ^b %; in experiment [2] (0.1 μM), 97.18 ± 2.61 ^b %; in experiment [2] (0.2 μM) it was 80.38 ± 1.72 ^c %; in experiment [2] (0.25 μM), 60.12 ± 1.74% and 60.12 ± 1.74 ^d %. Besides, the half-maximal inhibitory concentration (IC50) in the experiment on BSA-glucose was found to be 1.8 µM; against pancreatic lipase, 0.566 µM.
In experiment [1], `CSc1ccc2c(c1)Sc1cc3ccccc3nc1N2CCCS(=O)(=O)O` [Compound 8, 3-(9-methylthio[3,2-b]benzo[1,4]thiazin-6-yl)propane-1-sulfonic acid] showed a DPPH mean inhibition of 7.36%. For the same compound, the “% ROS Generation” value in experiment [2] (0.02 μM) was 149.62 ± 6.71% and 149.62 ± 6.71 ^a %; in experiment [2] (0.06 μM) it was 101.04 ± 7.69 ^b %; in experiment [2] (0.1 μM), 71.47 ± 2.98 ^c %; in experiment [2] (0.2 μM), 62.94 ± 4.59 ^c %; in experiment [2] (0.25 μM), 50.89 ± 2.85% and 50.89 ± 2.85 ^d %. The IC50 with BSA-glucose turned out to be 0.98 µM; at pancreatic lipase it was 1.32 µM.
On to `O=S(=O)(O)CCCCN1c2ccc(F)cc2Sc2cc3ccccc3nc21` [Compound 10, 4-(9-fluoroquino[3,2-b]benzo[1,4]thiazin-6-yl)butane-1-sulfonic acid], for which the DPPH mean inhibition in experiment [1] worked out at 6.21%. Also, the “% ROS Generation” value is 103.85 ± 1.17% and 103.85 ± 1.17 ^a % in experiment [2] (0.02 μM); 74.74 ± 2.90 ^b % in experiment [2] (0.06 μM); 69.81 ± 5.23 ^b % in experiment [2] (0.1 μM); 52.56 ± 4.14 ^c % in experiment [2] (0.2 μM); 47.16 ± 3.71% and 47.16 ± 3.71 ^c % in experiment [2] (0.25 μM). The half-inhibitory concentration (IC50) was found to be 2.24 µM in the experiment with BSA-glucose and 0.477 µM against pancreatic lipase.
`O=C1O[C@H]([C@@H](O)CO)C(O)=C1O` [ascorbic acid, reference compound]: the DPPH mean inhibition in experiment [1] amounted to 54.24%.
